Source: PubChem BioAssay AID588689 (Southern Research Specialized Biocontainment Screening …, 2011)

Biological target: Genome polyprotein (Dengue virus type 2 (strain 16681-PDK53)) (UniProt P29991)
Assay: Dengue-2 NS5 methyltransferase inhibitors, primary screen, biochemical, confirmation dose response (AID 588689)
Conditions: Dengue-2 NS5 methyltransferase capping enzyme assay

Genome polyprotein (Dengue virus type 2 (strain 16681-PDK53)), sequence (P29991 whole entry, looked up): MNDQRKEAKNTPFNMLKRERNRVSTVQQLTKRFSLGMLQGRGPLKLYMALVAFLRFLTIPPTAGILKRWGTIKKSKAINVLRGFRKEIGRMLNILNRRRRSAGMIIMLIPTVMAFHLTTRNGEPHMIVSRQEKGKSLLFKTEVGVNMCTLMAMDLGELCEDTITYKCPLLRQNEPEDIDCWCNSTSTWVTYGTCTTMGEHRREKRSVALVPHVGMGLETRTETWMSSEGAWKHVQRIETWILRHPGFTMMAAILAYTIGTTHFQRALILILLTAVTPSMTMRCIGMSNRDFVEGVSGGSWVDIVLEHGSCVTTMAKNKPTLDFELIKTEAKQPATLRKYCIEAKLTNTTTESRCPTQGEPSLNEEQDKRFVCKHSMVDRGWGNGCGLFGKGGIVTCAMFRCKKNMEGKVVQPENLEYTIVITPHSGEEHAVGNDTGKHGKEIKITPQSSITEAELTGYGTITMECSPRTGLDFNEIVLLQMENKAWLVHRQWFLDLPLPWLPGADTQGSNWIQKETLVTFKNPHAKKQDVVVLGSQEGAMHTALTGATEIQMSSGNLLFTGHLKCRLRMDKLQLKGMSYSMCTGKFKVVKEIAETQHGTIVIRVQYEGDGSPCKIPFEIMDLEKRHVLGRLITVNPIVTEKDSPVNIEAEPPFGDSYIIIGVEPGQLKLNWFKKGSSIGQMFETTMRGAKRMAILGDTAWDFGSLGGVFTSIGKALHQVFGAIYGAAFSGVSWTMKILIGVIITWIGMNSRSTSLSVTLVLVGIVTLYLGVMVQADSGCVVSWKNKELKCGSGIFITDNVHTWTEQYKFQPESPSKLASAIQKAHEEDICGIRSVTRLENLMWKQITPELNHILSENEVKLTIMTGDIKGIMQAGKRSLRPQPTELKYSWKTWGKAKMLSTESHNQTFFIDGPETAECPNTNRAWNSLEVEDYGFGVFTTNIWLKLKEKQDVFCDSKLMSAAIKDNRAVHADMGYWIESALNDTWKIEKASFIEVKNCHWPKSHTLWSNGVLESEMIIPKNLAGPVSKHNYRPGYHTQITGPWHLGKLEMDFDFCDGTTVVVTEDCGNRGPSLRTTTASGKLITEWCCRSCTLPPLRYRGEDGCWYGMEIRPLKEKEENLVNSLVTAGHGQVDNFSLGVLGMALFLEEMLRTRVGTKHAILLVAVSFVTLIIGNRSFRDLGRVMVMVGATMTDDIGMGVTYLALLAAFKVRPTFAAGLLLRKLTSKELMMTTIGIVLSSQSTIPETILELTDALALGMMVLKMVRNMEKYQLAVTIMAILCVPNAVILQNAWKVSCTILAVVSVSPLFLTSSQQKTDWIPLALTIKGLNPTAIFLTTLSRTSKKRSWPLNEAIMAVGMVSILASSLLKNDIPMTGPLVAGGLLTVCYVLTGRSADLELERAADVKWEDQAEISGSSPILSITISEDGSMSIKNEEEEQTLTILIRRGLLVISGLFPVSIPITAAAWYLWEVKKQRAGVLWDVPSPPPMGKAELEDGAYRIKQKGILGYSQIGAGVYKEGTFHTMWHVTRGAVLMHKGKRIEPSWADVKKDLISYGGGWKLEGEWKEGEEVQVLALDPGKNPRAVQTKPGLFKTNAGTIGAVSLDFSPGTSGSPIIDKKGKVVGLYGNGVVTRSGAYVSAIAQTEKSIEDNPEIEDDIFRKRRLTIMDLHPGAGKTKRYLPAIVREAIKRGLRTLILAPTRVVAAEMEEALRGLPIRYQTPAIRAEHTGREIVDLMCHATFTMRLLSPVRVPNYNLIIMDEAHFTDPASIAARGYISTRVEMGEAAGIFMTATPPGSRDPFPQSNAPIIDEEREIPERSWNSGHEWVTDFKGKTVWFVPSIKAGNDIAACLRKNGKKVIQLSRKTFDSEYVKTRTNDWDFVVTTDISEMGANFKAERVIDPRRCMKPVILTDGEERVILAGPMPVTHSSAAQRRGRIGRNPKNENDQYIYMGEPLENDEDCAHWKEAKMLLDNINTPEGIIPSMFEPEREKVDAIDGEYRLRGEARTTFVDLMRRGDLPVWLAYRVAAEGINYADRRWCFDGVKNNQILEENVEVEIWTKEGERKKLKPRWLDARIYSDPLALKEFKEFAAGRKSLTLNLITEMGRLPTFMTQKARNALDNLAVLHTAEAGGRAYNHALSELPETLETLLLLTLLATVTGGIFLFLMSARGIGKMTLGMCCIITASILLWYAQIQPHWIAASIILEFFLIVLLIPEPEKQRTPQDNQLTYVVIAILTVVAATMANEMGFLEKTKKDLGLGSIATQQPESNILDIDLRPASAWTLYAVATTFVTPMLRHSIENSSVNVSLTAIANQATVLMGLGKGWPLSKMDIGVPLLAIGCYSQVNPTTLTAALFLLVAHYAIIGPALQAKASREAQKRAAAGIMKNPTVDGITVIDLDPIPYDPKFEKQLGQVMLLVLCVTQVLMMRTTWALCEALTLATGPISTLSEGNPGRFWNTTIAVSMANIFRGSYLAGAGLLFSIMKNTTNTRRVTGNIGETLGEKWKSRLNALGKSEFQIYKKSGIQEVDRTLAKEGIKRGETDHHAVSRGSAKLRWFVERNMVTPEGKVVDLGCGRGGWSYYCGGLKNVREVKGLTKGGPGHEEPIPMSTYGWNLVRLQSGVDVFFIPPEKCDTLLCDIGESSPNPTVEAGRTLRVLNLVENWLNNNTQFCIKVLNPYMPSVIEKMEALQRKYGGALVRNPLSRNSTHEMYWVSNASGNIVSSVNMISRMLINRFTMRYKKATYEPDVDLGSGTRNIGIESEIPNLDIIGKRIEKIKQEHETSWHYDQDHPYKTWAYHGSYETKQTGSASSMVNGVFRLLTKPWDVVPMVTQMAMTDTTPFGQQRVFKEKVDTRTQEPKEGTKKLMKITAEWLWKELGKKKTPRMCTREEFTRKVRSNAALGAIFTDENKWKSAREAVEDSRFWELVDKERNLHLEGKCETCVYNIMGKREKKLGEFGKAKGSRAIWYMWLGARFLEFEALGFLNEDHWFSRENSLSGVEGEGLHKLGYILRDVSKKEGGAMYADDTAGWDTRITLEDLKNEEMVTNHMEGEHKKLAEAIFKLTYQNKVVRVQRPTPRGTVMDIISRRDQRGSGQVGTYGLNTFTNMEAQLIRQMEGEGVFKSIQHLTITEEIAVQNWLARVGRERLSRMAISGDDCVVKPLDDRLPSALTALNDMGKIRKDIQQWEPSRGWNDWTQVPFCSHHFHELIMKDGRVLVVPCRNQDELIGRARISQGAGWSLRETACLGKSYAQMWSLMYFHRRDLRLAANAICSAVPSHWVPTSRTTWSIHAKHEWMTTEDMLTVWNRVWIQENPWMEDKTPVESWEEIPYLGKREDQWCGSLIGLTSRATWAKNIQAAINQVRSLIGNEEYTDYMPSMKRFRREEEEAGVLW

Compound	IC50
CCCCC1(C)OC(=O)C(=Cc2ccc(-c3ccc(Cl)c(C(=O)O)c3)o2)C(=O)O1 (configuration not stated)	14 µM
C=Cc1c(C)c2cc3[nH]c(cc4nc(cc5nc(cc1[nH]2)C(C)=C5CCC(=O)O)C(CCC(=O)O)=C4C)c(C)c3C=C	34.6 µM
